This is an account of results in US12365761B2, “Biodegradable ultra-pH sensitive polymers” (priority 2019, dated 2025).

The assay relates to TC-1 tumor model. As to the kind of experiment: PSC7A nanovaccine tumor therapy, TC-1 tumor model. It counts as in vivo, C57BL/6 mice. To be noted: TC-1 model, s.c. at tail base, three injections, versus PBS control. The text has this: The nanovaccine was made by physically mixing tumor specific antigenic peptides and PSC7A nanoparticles. Non-degradable PC7A based nanovaccines were used for comparison. […] Tumor growth was subsequently measured using a digital caliper and calculated as 0.5×length×width^2. Mice were sacrificed when the tumor volumes reached 2000 mm^3.
PSC7A nanoparticles were first produced and then mixed with tumor-specific antigenic peptides. Human papilloma virus (HPV) E6/E7-transfected TC-1 and murine B16-F10 melanoma tumor models were used. […] In the TC-1 model, E7 peptide antigen (E7p, […] (SEQ. No. 1)) was used. […] Most of the animals were lost within 30 days after tumor inoculation.

On to GQAEPDRAHYNIVTFCCKCD [E7p], for which the tumor growth inhibition result is “marginal tumor growth inhibition”.
